Experimental data as given in PMC7588595, “Small-molecule active pharmaceutical ingredients of approved cancer therapeutics inhibit human aspartate/asparagine-β-hydroxylase” (Bioorganic & Medicinal Chemistry, 2020).
Where a name gives a salt, the structure may show the parent alone. Read-outs that look alike come from different tables or passages of the source.

Molecular target: T1, human AspH (His6-AspH315–758) (Homo sapiens, UniProt Q12797)
T1 construct: N-Terminally His6-tagged human AspH315–758 (His6-AspH315–758) was produced in Escherichia coli BL21 (DE3) cells; made in house; host or cells: Escherichia coli BL21 (DE3), pET-28a(+) vector
T1 sequence (Q12797 315-758): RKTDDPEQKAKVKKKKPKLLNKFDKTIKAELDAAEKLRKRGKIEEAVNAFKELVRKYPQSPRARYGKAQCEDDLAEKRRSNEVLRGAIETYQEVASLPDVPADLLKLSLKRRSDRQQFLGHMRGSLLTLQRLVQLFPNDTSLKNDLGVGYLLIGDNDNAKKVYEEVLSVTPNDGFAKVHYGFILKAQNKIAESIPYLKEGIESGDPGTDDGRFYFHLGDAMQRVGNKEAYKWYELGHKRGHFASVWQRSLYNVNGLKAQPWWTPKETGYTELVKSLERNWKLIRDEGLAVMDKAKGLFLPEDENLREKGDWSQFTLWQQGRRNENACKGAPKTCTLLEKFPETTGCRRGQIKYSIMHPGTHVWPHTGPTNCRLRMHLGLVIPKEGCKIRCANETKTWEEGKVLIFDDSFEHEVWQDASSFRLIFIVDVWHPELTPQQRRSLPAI
Experiment: SPE-MS AspH inhibition assay (hFX-CP101-119 substrate hydroxylation)
Assay type: biochemical

[1] = AspH-inhibitor screening, 384-well Plate 1
[2] = AspH-inhibitor screening, 384-well Plate 1, substrate conversion
[3] = AspH-inhibitor screening, Plate 1-duplicate
[4] = AspH-inhibitor screening, Plate 1-duplicate, substrate conversion

SMILES	Plate 1 (% inhibition) [1] [%]	Plate 1 (% conversion) [2] [%]	Plate 1-duplicate (% inhibition) [3] [%]	Plate 1-duplicate (% conversion) [4] [%]	Plate 1 (% conversion) [%]	Plate 1 (% inhibition) [%]	Plate 1-duplicate (% conversion) [%]	Plate 1-duplicate (% inhibition) [%]
CN(Cc1cnc2nc(N)nc(N)c2n1)c1ccc(C(=O)N[C@@H](CCC(=O)O)C(=O)O)cc1 [Abitrexate/Methotrexate]	8.67	45.75	10.50	46.84				
CCc1cc2c(cc1N1CCC(N3CCOCC3)CC1)C(C)(C)c1[nH]c3cc(C#N)ccc3c1C2=O [Alectinib]	-0.39	49.93	8.49	47.83				
Oc1ncnc2[nH]ncc12 [Allopurinol]	-0.61	50.03	4.67	49.73				
CN(C)c1nc(N(C)C)nc(N(C)C)n1 [Altretamine]	3.32	48.22	13.59	45.30				
NCCCNCCSP(=O)(O)O [Amifostine]	3.65	48.06	5.75	49.19				
CCC1(c2ccc(N)cc2)CCC(=O)NC1=O (stereo not shown) [Aminoglutethimide]	11.22	44.57	9.40	47.38				
NCC(=O)CCC(=O)O [Aminolevulinic acid hydrochloride]	20.47	40.30	25.89	39.20				
CN(C)CCN1C(=O)c2cccc3cc(N)cc(c23)C1=O [Amonafide]	4.40	47.72	3.28	50.42				
O=C1CN2Cc3c(ccc(Cl)c3Cl)N=C2N1 [Anagrelide]	0.57	49.49	0.27	51.91				
CC(C)(C#N)c1cc(Cn2cncn2)cc(C(C)(C)C#N)c1 [Anastrozole]	2.34	48.67	3.84	50.14				
O=[As]O[As]=O (stereo not shown) [Arsenic(III) oxide]					46.14	7.82	49.86	4.39
CC(=O)Oc1ccccc1C(=O)O [Aspirin (Acetylsalicylic Acid)]	8.11	46.01	6.00	49.07				
CC(C)c1c(C(=O)Nc2ccccc2)c(-c2ccccc2)c(-c2ccc(F)cc2)n1CC[C@@H](O)C[C@@H](O)CC(=O)[O-].CC(C)c1c(C(=O)Nc2ccccc2)c(-c2ccccc2)c(-c2ccc(F)cc2)n1CC[C@@H](O)C[C@@H](O)CC(=O)[O-].[Ca+2] [Atorvastatin Ca]						0.42		-1.82
CC(=O)OC[C@H]1O[C@@H]([S-])[C@H](OC(C)=O)[C@@H](OC(C)=O)[C@@H]1OC(C)=O.CCP(CC)CC.[Au+] [Auranofin]	60.34	21.89	55.51	24.51				
CNC(=O)c1ccccc1Sc1ccc2c(/C=C/c3ccccn3)n[nH]c2c1 [Axitinib]	0.59	49.48	-0.34	52.21				
Nc1ncn([C@@H]2O[C@H](CO)[C@@H](O)[C@H]2O)c(=O)n1 [Azacitidine]	17.64	41.61	12.26	45.96				
CNC(=O)c1cc(Oc2ccc(NC(=O)Nc3ccc(Cl)c(C(F)(F)F)c3)c(F)c2)ccn1 [BAY 73-4506_Regorafenib]	62.82	20.74	53.45	25.53				
CC[C@@H]1C(=O)N(C)c2cnc(Nc3ccc(C(=O)N[C@H]4CC[C@H](N5CCN(CC6CC6)CC5)CC4)cc3OC)nc2N1C(C)C [BI 6727_Volasertib]	-9.00	53.91	-19.71	61.82				
COC(=O)c1ccc2c(c1)NC(=O)/C2=C(\Nc1ccc(N(C)C(=O)CN2CCN(C)CC2)cc1)c1ccccc1 [BIBF 1120_Nintedanib]	-13.53	56.00	-2.41	53.24				
CN(C)C/C=C/C(=O)Nc1cc2c(Nc3ccc(F)c(Cl)c3)ncnc2cc1O[C@H]1CCOC1 [BIBW2992 (Tovok)_Afatinib]	-24.14	60.90	-42.32	73.03				
COc1c(C)cnc(Cn2cnc3c(Cl)nc(N)nc32)c1C [BIIB021]	5.65	47.14	5.00	49.56				
Cc1ccc(-n2nc(C(C)(C)C)cc2NC(=O)Nc2ccc(OCCN3CCOCC3)c3ccccc23)cc1 [BIRB 796 (Doramapimod)]	7.83	46.14	2.76	50.67				
Nc1cc(C(F)(F)F)c(-c2cc(N3CCOCC3)nc(N3CCOCC3)n2)cn1 [BKM-120_Buparlisib]	1.72	48.96	-1.07	52.57				
CCn1c(C(=O)N(C2CC2)C2CC2)cc2c3c(ncn3C)c(Nc3cc(C)n(C)n3)nc21 [BMS-911543]	-9.55	54.16	-14.91	59.44				
O=C(/C=C/c1cccc(S(=O)(=O)Nc2ccccc2)c1)NO [Belinostat (PXD101)]	97.27	4.83	96.98	3.94				
Cl.Cn1c(CCCC(=O)O)nc2cc(N(CCCl)CCCl)ccc21 [Bendamustine hydrochloride]	2.89	48.41	4.93	49.60				
C=C(c1ccc(C(=O)O)cc1)c1cc2c(cc1C)C(C)(C)CCC2(C)C [Bexarotene]	-5.40	52.24	-0.39	52.24				
CC(O)(CS(=O)(=O)c1ccc(F)cc1)C(=O)Nc1ccc(C#N)c(C(F)(F)F)c1 (stereo not shown) [Bicalutamide]	-2.20	50.76	0.00746	52.04				
CCNC(=O)CCC/C=C\C[C@@H]1[C@@H](/C=C/[C@@H](O)CCc2ccccc2)[C@H](O)C[C@@H]1O [Bimatoprost]	-1.86	50.61	-1.99	53.03				
CC(C)C[C@H](NC(=O)[C@H](Cc1ccccc1)NC(=O)c1cnccn1)B(O)O [Bortezomib]	6.81	46.61	7.89	48.13				
